Experimental data published in ChEMBL document CHEMBL4507277.

Columns and labels:
[1] = molecular target: Activin receptor type-2A (Homo sapiens) (UniProt P27037); details: Compound concentration 1000.0 nM
[2] = molecular target: 5'-AMP-activated protein kinase catalytic subunit alpha-2 (Homo sapiens) (UniProt P54646); details: Compound concentration 1000.0 nM
[3] = molecular target: Mitogen-activated protein kinase kinase kinase 6 (Homo sapiens) (UniProt O95382); details: Compound concentration 1000.0 nM
[4] = molecular target: Cytoplasmic tyrosine-protein kinase BMX (Homo sapiens) (UniProt P51813); details: Compound concentration 1000.0 nM
[5] = molecular target: Calcium/calmodulin-dependent protein kinase kinase 2 (Homo sapiens) (UniProt Q96RR4); details: Compound concentration 1000.0 nM
[6] = molecular target: Cyclin-dependent kinase 13 (Homo sapiens) (UniProt Q14004); details: Compound concentration 1000.0 nM
[7] = molecular target: Serine/threonine-protein kinase Chk1 (Homo sapiens) (UniProt O14757); details: Compound concentration 1000.0 nM
[8] = molecular target: Death-associated protein kinase 2 (Homo sapiens) (UniProt Q9UIK4); details: Compound concentration 1000.0 nM
[9] = molecular target: Serine/threonine-protein kinase DCLK3 (Homo sapiens) (UniProt Q9C098); details: Compound concentration 1000.0 nM
[10] = molecular target: Dual specificity tyrosine-phosphorylation-regulated kinase 1B (Homo sapiens) (UniProt Q9Y463); details: Compound concentration 1000.0 nM
[11] = molecular target: Ephrin type-A receptor 1 (Homo sapiens) (UniProt P21709); details: Compound concentration 1000.0 nM
[12] = molecular target: Ephrin type-B receptor 1 (Homo sapiens) (UniProt P54762); details: Compound concentration 1000.0 nM
[13] = molecular target: Ephrin type-B receptor 6 (Homo sapiens) (UniProt O15197); details: Compound concentration 1000.0 nM
[14] = molecular target: Fibroblast growth factor receptor 1 (Homo sapiens) (UniProt P11362); details: Compound concentration 1000.0 nM
[15] = molecular target: Hormonally up-regulated neu tumor-associated kinase (Homo sapiens) (UniProt P57058); details: Compound concentration 1000.0 nM
[16] = molecular target: Interleukin-1 receptor-associated kinase 1 (Homo sapiens) (UniProt P51617); details: Compound concentration 1000.0 nM
[17] = molecular target: Mitogen-activated protein kinase kinase kinase kinase 5 (Homo sapiens) (UniProt Q9Y4K4); details: Compound concentration 1000.0 nM
[18] = molecular target: Maternal embryonic leucine zipper kinase (Homo sapiens) (UniProt Q14680); details: Compound concentration 1000.0 nM
[19] = molecular target: Misshapen-like kinase 1 (Homo sapiens) (UniProt Q8N4C8); details: Compound concentration 1000.0 nM
Misshapen-like kinase 1 (Homo sapiens), sequence (Q8N4C8 whole entry, looked up): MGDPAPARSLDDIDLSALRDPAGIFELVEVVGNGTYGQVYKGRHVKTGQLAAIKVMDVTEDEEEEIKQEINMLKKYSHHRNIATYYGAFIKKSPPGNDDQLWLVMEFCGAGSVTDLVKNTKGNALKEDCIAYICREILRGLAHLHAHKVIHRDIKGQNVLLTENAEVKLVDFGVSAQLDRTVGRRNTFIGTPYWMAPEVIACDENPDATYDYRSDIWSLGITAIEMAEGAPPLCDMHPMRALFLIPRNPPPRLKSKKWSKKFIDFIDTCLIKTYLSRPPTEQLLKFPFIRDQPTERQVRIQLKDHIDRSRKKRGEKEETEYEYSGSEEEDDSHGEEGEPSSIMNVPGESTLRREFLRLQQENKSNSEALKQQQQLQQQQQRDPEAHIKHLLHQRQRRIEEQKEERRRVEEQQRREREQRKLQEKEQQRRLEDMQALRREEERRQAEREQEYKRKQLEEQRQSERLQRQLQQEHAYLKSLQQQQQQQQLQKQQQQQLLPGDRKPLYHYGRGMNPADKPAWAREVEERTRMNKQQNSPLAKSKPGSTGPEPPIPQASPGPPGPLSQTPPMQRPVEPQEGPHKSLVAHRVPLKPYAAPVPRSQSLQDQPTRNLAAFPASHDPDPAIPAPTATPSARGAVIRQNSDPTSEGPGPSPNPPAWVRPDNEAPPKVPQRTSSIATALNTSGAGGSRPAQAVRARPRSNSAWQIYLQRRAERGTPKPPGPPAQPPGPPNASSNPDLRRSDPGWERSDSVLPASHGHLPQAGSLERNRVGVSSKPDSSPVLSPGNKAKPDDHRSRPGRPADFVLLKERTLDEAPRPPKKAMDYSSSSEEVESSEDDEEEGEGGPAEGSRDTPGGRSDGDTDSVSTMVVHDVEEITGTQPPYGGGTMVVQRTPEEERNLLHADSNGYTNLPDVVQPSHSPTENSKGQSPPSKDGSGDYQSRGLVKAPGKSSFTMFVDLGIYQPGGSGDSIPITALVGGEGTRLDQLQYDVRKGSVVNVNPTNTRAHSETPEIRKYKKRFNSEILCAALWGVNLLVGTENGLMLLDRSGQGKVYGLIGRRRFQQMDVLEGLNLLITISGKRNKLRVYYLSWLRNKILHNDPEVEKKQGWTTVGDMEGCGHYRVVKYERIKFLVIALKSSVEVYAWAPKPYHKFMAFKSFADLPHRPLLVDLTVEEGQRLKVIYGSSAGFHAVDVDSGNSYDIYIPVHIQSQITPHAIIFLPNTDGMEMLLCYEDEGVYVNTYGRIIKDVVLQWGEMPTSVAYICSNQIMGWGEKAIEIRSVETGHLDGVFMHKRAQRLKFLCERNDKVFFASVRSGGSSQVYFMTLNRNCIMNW

[20] = molecular target: Dual specificity mitogen-activated protein kinase kinase 7 (Homo sapiens) (UniProt O14733); details: Compound concentration 1000.0 nM
[21] = molecular target: Serine/threonine-protein kinase mTOR (Homo sapiens) (UniProt P42345); details: Compound concentration 1000.0 nM
[22] = molecular target: Serine/threonine-protein kinase Nek2 (Homo sapiens) (UniProt P51955); details: Compound concentration 1000.0 nM
[23] = molecular target: Mitogen-activated protein kinase kinase kinase 14 (Homo sapiens) (UniProt Q99558); details: Compound concentration 1000.0 nM
[24] = molecular target: Cyclin-dependent kinase 18 (Homo sapiens) (UniProt Q07002); details: Compound concentration 1000.0 nM
[25] = molecular target: Platelet-derived growth factor receptor alpha (Homo sapiens) (UniProt P16234); details: Compound concentration 1000.0 nM
[26] = molecular target: Phosphatidylinositol 4,5-bisphosphate 3-kinase catalytic subunit alpha isoform (Homo sapiens) (UniProt P42336); details: Compound concentration 1000.0 nM
[27] = system: Phosphatidylinositol 4,5-bisphosphate 3-kinase catalytic subunit alpha isoform (Homo sapiens), P42336 [C420R]; details: Compound concentration 1000.0 nM
[28] = system: Phosphatidylinositol 4,5-bisphosphate 3-kinase catalytic subunit alpha isoform (Homo sapiens), P42336 [E545K]; details: Compound concentration 1000.0 nM
[29] = molecular target: Phosphatidylinositol 4,5-bisphosphate 3-kinase catalytic subunit delta isoform (Homo sapiens) (UniProt O00329); details: Compound concentration 1000.0 nM
[30] = molecular target: Phosphatidylinositol 4-phosphate 5-kinase type-1 gamma (Homo sapiens) (UniProt O60331); details: Compound concentration 1000.0 nM
Phosphatidylinositol 4-phosphate 5-kinase type-1 gamma (Homo sapiens), sequence (O60331 whole entry): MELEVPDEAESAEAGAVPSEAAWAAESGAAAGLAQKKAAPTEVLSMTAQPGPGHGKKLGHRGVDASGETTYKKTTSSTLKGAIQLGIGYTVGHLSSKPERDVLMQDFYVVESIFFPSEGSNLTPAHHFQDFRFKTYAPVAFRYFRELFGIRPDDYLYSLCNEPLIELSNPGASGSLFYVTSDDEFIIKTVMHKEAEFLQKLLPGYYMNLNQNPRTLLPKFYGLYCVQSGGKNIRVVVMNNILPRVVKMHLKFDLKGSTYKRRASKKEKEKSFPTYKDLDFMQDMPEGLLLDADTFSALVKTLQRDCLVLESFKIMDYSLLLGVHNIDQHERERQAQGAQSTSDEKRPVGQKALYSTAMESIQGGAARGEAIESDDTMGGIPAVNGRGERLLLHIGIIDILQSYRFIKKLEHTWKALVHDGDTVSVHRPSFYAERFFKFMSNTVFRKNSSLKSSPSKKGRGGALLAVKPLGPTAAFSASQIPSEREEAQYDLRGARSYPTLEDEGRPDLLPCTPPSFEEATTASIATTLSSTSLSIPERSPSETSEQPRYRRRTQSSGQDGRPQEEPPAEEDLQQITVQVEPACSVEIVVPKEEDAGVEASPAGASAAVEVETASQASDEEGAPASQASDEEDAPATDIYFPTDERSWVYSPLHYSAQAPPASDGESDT

[31] = molecular target: Membrane-associated tyrosine- and threonine-specific cdc2-inhibitory kinase (Homo sapiens) (UniProt Q99640); details: Compound concentration 1000.0 nM
[32] = molecular target: Serine/threonine-protein kinase PLK3 (Homo sapiens) (UniProt Q9H4B4); details: Compound concentration 1000.0 nM
[33] = molecular target: Receptor-interacting serine/threonine-protein kinase 2 (Homo sapiens) (UniProt O43353); details: Compound concentration 1000.0 nM
[34] = molecular target: Serine/threonine-protein kinase Sgk2 (Homo sapiens) (UniProt Q9HBY8); details: Compound concentration 1000.0 nM
[35] = molecular target: STE20-like serine/threonine-protein kinase (Homo sapiens) (UniProt Q9H2G2); details: Compound concentration 1000.0 nM
[36] = molecular target: Serine/threonine-protein kinase TAO1 (Homo sapiens) (UniProt Q7L7X3); details: Compound concentration 1000.0 nM
[37] = molecular target: Serine/threonine-protein kinase TAO3 (Homo sapiens) (UniProt Q9H2K8); details: Compound concentration 1000.0 nM
[38] = molecular target: Tyrosine-protein kinase receptor Tie-1 (Homo sapiens) (UniProt P35590); details: Compound concentration 1000.0 nM
[39] = molecular target: Wee1-like protein kinase 2 (Homo sapiens) (UniProt P0C1S8); details: Compound concentration 1000.0 nM
[40] = molecular target: Serine/threonine-protein kinase WNK3 (Homo sapiens) (UniProt Q9BYP7); details: Compound concentration 1000.0 nM
Serine/threonine-protein kinase WNK3 (Homo sapiens), sequence (Q9BYP7 whole entry): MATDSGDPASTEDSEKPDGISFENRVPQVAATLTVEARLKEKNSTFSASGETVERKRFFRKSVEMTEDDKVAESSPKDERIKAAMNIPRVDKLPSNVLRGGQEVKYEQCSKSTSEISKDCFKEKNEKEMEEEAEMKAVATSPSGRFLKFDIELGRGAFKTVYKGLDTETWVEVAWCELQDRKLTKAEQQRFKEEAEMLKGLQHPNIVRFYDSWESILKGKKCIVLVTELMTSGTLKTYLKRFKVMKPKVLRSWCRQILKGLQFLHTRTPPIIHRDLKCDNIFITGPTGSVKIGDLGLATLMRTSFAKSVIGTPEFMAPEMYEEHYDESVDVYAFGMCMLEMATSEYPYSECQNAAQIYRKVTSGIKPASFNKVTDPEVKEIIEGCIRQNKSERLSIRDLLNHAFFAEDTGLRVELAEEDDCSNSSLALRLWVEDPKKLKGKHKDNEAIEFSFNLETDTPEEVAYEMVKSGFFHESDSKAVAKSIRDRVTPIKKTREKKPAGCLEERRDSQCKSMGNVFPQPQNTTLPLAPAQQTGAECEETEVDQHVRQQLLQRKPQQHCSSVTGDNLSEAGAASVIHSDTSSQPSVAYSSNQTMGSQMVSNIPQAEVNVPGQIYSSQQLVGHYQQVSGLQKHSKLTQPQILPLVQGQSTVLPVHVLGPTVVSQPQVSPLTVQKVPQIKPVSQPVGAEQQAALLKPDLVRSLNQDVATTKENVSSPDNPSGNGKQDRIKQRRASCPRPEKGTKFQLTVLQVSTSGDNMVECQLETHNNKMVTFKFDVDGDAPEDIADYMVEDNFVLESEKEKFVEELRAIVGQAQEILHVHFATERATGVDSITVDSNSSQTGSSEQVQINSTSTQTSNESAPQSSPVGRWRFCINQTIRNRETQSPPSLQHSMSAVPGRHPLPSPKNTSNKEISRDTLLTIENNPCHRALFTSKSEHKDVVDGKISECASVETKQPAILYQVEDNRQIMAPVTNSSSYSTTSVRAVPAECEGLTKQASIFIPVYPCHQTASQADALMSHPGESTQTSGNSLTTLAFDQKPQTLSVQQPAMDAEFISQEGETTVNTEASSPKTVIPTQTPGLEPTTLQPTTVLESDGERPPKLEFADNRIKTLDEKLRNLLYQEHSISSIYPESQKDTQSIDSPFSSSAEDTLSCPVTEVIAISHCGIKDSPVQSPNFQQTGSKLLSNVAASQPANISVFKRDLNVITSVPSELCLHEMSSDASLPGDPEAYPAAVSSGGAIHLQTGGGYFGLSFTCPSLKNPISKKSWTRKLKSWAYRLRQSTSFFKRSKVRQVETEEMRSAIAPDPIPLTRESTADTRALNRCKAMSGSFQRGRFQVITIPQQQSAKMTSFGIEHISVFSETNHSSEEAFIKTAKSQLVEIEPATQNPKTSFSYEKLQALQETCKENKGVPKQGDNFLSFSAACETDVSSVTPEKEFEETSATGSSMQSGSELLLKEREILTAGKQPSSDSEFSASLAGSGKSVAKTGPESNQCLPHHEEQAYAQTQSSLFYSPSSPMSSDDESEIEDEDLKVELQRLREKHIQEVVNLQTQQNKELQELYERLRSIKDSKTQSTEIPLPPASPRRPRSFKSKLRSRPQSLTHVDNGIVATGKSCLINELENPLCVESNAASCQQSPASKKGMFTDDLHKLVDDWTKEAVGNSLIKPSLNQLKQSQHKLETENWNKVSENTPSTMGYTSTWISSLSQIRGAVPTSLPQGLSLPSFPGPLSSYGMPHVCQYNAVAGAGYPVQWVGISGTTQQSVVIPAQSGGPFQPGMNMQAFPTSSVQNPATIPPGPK

[41] = molecular target: Mitogen-activated protein kinase kinase kinase 19 (Homo sapiens) (UniProt Q56UN5); details: Compound concentration 1000.0 nM
[42] = molecular target: D(3) dopamine receptor (Homo sapiens) (UniProt P35462); details: Compound concentration 10.0 uM
D(3) dopamine receptor (Homo sapiens), sequence (P35462 whole entry): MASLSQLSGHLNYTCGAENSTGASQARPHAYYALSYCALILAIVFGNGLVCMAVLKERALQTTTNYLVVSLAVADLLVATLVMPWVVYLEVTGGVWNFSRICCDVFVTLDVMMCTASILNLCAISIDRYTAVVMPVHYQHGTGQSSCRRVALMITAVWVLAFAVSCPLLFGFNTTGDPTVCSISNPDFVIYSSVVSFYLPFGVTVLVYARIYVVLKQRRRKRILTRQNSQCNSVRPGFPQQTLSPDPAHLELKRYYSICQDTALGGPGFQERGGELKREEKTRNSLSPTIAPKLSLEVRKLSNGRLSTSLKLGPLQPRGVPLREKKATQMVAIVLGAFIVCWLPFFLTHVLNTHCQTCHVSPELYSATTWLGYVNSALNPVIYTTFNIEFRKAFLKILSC

[43] = molecular target: Histamine H4 receptor (Homo sapiens) (UniProt Q9H3N8); details: Compound concentration 10.0 uM
[44] = molecular target: Sigma non-opioid intracellular receptor 1 (Homo sapiens) (UniProt Q99720); details: Compound concentration 10.0 uM
Sigma non-opioid intracellular receptor 1 (Homo sapiens), sequence (Q99720 whole entry): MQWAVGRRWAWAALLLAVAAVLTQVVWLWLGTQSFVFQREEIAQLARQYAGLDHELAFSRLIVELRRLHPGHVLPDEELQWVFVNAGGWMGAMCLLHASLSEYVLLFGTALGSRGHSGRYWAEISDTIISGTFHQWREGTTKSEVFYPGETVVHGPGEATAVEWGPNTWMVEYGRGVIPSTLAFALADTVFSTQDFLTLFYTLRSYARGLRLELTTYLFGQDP

5'-AMP-activated protein kinase catalytic subunit alpha-2 (Homo sapiens), sequence (P54646 whole entry, looked up): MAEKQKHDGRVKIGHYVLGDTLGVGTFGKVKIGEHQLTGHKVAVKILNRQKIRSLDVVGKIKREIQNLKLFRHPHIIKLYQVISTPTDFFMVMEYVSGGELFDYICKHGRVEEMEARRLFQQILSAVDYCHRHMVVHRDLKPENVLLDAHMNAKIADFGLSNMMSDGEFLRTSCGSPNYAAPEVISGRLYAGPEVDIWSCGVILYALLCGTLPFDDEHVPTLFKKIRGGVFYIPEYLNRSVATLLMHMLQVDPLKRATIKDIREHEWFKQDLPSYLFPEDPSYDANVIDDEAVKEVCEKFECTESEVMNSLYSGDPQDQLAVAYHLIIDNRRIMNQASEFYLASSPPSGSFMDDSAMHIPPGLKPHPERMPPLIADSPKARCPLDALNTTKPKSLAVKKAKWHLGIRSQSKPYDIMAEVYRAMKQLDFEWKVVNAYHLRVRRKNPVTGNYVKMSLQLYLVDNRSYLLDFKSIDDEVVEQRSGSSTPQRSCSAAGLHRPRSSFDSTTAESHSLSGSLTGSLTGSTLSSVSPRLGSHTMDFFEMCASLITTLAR

CCS(=O)(=O)c1cc2cc(C[C@](O)(CC(C)(C)c3ccc(F)cc3C(N)=O)C(F)(F)F)[nH]c2cn1
inactive: residual activity [1] 100% | residual activity [2] 97% | residual activity [3] 55% | residual activity [4] 74% | residual activity [5] 100% | residual activity [6] 100% | residual activity [7] 97% | residual activity [8] 90% | residual activity [9] 100% | residual activity [10] 88% | residual activity [11] 100% | residual activity [12] 86% | residual activity [13] 100% | residual activity [14] 94% | residual activity [15] 100% | residual activity [16] 99% | residual activity [17] 100% | residual activity [18] 100% | residual activity [19] 89% | residual activity [20] 99% | residual activity [21] 77% | residual activity [22] 100% | residual activity [23] 88% | residual activity [24] 100% | residual activity [25] 82% | residual activity [26] 81% | residual activity [27] 95% | residual activity [28] 80% | residual activity [29] 89% | residual activity [30] 100% | residual activity [31] 100% | residual activity [32] 93% | residual activity [33] 67% | residual activity [34] 90% | residual activity [35] 100% | residual activity [36] 88% | residual activity [37] 86% | residual activity [38] 100% | residual activity [39] 100% | residual activity [40] 100% | residual activity [41] 93% | inhibition [42] 7.81% | inhibition [43] 3.88% | inhibition [44] 10.1%

CCS(=O)(=O)c1cc2cc(C[C@@](O)(CC(C)(C)c3ccc(F)cc3C(N)=O)C(F)(F)F)[nH]c2cn1
inactive: residual activity [1] 94% | residual activity [2] 100% | residual activity [3] 100% | residual activity [4] 50% | residual activity [5] 56% | residual activity [6] 91% | residual activity [7] 100% | residual activity [8] 100% | residual activity [9] 100% | residual activity [10] 100% | residual activity [11] 99% | residual activity [12] 92% | residual activity [13] 100% | residual activity [14] 95% | residual activity [15] 100% | residual activity [16] 80% | residual activity [17] 99% | residual activity [18] 100% | residual activity [19] 79% | residual activity [20] 99% | residual activity [21] 100% | residual activity [22] 94% | residual activity [23] 59% | residual activity [24] 100% | residual activity [25] 99% | residual activity [26] 100% | residual activity [27] 89% | residual activity [28] 79% | residual activity [29] 90% | residual activity [30] 98% | residual activity [31] 67% | residual activity [32] 99% | residual activity [33] 100% | residual activity [34] 57% | residual activity [35] 88% | residual activity [36] 73% | residual activity [37] 78% | residual activity [38] 66% | residual activity [39] 95% | residual activity [40] 100% | residual activity [41] 76% | inhibition [42] 1.8% | inhibition [43] 2.05% | inhibition [44] 8.26%
